Data on one compound can be found in article PMC5862576, “Mitochondrial fission as a driver of stemness in tumor cells: mDIVI1 inhibits mitochondrial function, cell migration and cancer stem cell (CSC) signalling” (Oncotarget, 2018).

In assay [1] the test system is Wnt signalling. The assay can be described thus: Luciferase reporter assay MCF7-GFP-TCF/LEF(luc). The conditions noted are these: 50 µM, 2 and 5 days. Type of assay: cell-based, Human. The procedure: (§1) The Cignal Lenti reporter assay (luc) was used to monitor the activity of several signalling pathways in MCF7-GFP cells as explained previously. Luciferase Assay System (E1501, Promega) was performed according to manufacturer’s instructions. 1 × 10^4 MCF7 were seeded in black-walled 96 well plates. When cells were attached, drug treatments were added for 18, 48 hours and 5 days. After treatment, Luciferase Assay was performed according to manufacturer’s instructions and light signal was acquired in the Xenogen VivoVision IVIS Lumina. Results were normalized by SRB staining of cells grown in 96-well plates in parallel.
(§2) SRB (S9012, Sigma) measures total biomass by staining cellular proteins. After treatment, cells were fixed in 10% tricloroacetic acid (T9159, Sigma) for 1 hour at 4° C, stained with SRB (S9012, Sigma) for 15 minutes, and washed 3 times with 1% acetic acid (27225, Sigma). The incorporated die was solubilized with 10 mM Tris Base, pH 8.8 (T1503, Sigma). Absorbance was spectrophotometrically measured at 562 nm in a FluoStar Omega plate reader (BMG Labtech). Background measurements were subtracted from all values.
In general terms: Reporter assays use an easily measured gene product as a stand-in for the process of interest.

Assay [2] has as its system MCF7 cells. The assay can be described thus: DAPI viability of cells in suspension (anoikis resistance, FACS). The format is cell-based, Human. The procedure:
(§3) Following mDIVI1 treatment, MCF7 cells grown either in suspension or as monolayers were analysed for their expression of CD24 and CD44. The surviving fraction after 2 days and 5 days of growth was analyzed by FACS. MCF7 cells were either trypsinised or spun down and trypsinised and incubated with CD24 (IOTest CD24-PE, Beckman Coulter) and CD44 (APC mouse anti-human CD44, 559942, BD Pharmingen) for 15 minutes on ice. Cells were then rinsed twice in PBS, spun down, and resuspended with DAPI dye (D1306, Molecular probes) at 3 μM in PBS for 10 minutes. Samples were then analyzed by FACS (Fortessa, BD Bioscence). Only the live cell population, identified using the DAPI staining, was analyzed for CD24/CD44 expression. Data were analyzed using FlowJo software.

Assay [3] has as its system A549 lung cancer. The assay can be described thus: Tumorsphere formation assay, A549. As to conditions: five days. Type of assay: cell-based. As for the experimental part: (§4) A single cell suspension was prepared using enzymatic (1× Trypsin-EDTA, T3924, Sigma Aldrich), and manual disaggregation (25 gauge needle). Cells were plated at a density of 5000 cells/well in tumorsphere media (DMEM-F12/B27/EGF (20ng/ml)/Pen-Strep) in non-adherent conditions, in 6-well plates coated with (2-hydroxyethylmethacrylate) (poly-HEMA, P3932, Sigma) in the presence of mDIVI1 or vehicle. After 5 days of culture in a humidified incubator at 37° C, tumorspheres bigger than 50 μm were counted using an eye piece graticule.

Assay [4] concerns MCF7 cells. The assay can be described thus: PrestoBlue viability assay. Type of assay: cell-based, Human. As for the experimental part: Cell viability was measured using the resazurin-based PrestoBlue reagent (A-13261, ThermoFisher Scientific). Briefly, 5 × 10^3 MCF7 cells were seeded into 96-well black plates. When cells were attached mDIVI1 or vehicle were added to the cells. After 2 or 5 days, PrestoBlue reagent was added to the cells and incubated for 2 hours. Plates were finally read using a FluoStar Omega plate reader (BMG Labtech) at an excitation wavelength of 544 and an emission wavelength of 590 nm. Background measurements were subtracted from all values.

The test system of assay [5] is MCF7 cells. The experiment in a line: Mitochondrial staining (MitoTracker Deep Red, microscopy). Type of assay: cell-based, Human. The conditions noted are these: 10 µM, 2 days or 5 days. As for the experimental part: One hundred thousand MCF7 cells were seeded onto coverslips in 12-well plates. When cells were attached, mDIVI1 and vehicle treatments were performed in triplicate. After 2 days and 5 days, mitochondria were labeled by incubating cells for 15 min at 37° C with 25 nM of MitoTracker DeepRed (M22426, Invitrogen) diluted in PBS ([…], Sigma). Then, cells were washed with PBS, fixed in 2% paraformaldehyde (28908, Thermo Scientific) in PBS for 30 minutes at room temperature and mounted with ProLong® Gold Antifade Mountant reagent with DAPI (P36935, Invitrogen, Inc.). Immunofluorescence pictures were taken in a Leica gated Stimulated Emission Depletion Microscopy (gSTED) with additional confocal and multi-photon illumination (room rg106).

Assay [6] has as its system MCF7 cells. The assay can be described thus: Bradford assay (protein content). Type of assay: cell-based, Human. As for the experimental part:
Extracellular acidification rate (ECAR) and oxygen consumption rate (OCR) were measured in a XF96 Extracellular Flux Analyzer (Seahorse Biosciences). Briefly, 1 × 10^4 MCF7 cells per well were seeded in XF96 plates and incubated with complete medium. When cells were attached, mDIVI1 and vehicle treatments were added. Six replicates were run for each condition. After 48 hours, un-buffered DMEM XF medium supplemented with 2 mM glutamine (pH 7.4) was added to the cells, and placed in a 37° C CO2-free incubator for 1 hour. Ten mM glucose, 1 μM oligomycin and 100 mM 2-deoxyglucose (2-DG) were injected into the media at different time points and ECAR was measured. Likewise, ECAR and OCR were quantified using un-buffered DMEM XF medium supplemented with 2 mM glutamine, 2 mM sodium pyruvate and 10 mM glucose. One μM oligomycin, 0.9 μM FCCP and 1 μM rotenone and antimycin A were injected into the media at different time points and OCR and ECAR were measured.
Cells were finally lysed with 0.1 M NaOH and protein lysate was subsequently stained with Quick Start™ Bradford 1× Dye Reagent (500–0205, BioRad) to normalise results. All parameters were calculated according to manufacturer.

Assay [7] has as its system E-cadherin. The assay can be described thus: Western blotting. Type of assay: cell-based, Human. As to conditions: MCF7 cells. As for the experimental part:
At the end of the treatment, cells in suspension were spun down and lysed and attached cells were directly lysed in RIPA lysis buffer (R0278, Sigma) containing proteinase inhibitors (05 892 970 001, Roche) and kept at 4° C for 20 minutes with rotation. Lysates were cleared by centrifugation for 10 minutes at 10,000 xg and supernatants were collected. […] Bound antibodies were detected using a horseradish peroxidase-conjugated secondary antibody (ab6789 and ab6721, Abcam) and signal was obtained using Supersignal West Pico chemiluminiscent substrate (34087, ThermoScientific). Pictures were taken in a ChemiDoc XRS with Image Lab Software (BioRad).
Background: In western blotting, separated proteins are transferred to a membrane and probed.

The test system of assay [8] is Notch signalling. The assay can be described thus: Luciferase reporter assay MCF7-GFP-Rbp/Jk(luc). The format is cell-based, Human. As to conditions: 50 µM, 2 and 5 days. As for the experimental part: as §1, §2
Assay [9] relates to MCF7 cells. The assay can be described thus: Tumorsphere formation assay, MCF7. The format is cell-based, Human. As to conditions: five days, vs vehicle. The procedure: as §4
Assay [10] relates to MCF7 cells. The experiment in a line: CD24/CD44 expression (FACS). The format is cell-based, Human. The procedure:
as §3

SMILES strings stand for the structures.

As for `COc1cc(-n2c(=S)[nH]c3ccccc3c2=O)c(Cl)cc1Cl` [mDIVI1, 3-(2,4-Dichloro-5-methoxyphenyl) 2,3-dihydro 2-thioxo-4(1H) quinazolinone], the “Wnt/TCF pathway luciferase activity” value in assay [1] was “strikingly caused the inhibition”. In addition, the “cell viability under anchorage-independent conditions (DAPI) vs vehicle” value in [2] is “no significant differences”. For the same compound, the results for the “decrease of A549 tumorsphere forming capacity” value in assay [3] (10 µM) and in assay [3] (50 µM) were more than 15% and more than 80%, respectively. In addition, the “effect on MCF7 cell viability” value in [4] (10 µM, 48 hours) is recorded as “did not decrease viability”. The “reduction of MCF7 cell viability” value in assay [4] (10 µM, five days) is on record as 20%; in assay [4] (50 µM, 48 hours), 20%; in assay [4] (50 µM, five days), “over 65%”; in [4] (100 µM, 48 hours), 20%; in assay [4] (100 µM, five days), 85%. The mitochondrial morphology entry in assay [5] is listed as “more interconnected mitochondria”. The “effect on MCF7 protein content” value in assay [6] (10 µM, 48 hours) is reported as “slightly decreased”; in assay [6] (20 µM, 2 days) it was “significantly reduced”. Besides, in assay [6] (50 µM, 48 hours), the “reduction of MCF7 protein content” value was approximately 40%. In assay [7], the “E-cadherin expression (immunoblot)” value is on record as “reduction in the expression”. The “Notch/Rbp pathway luciferase activity” value in assay [8] was “strikingly caused the inhibition”. For the same compound, the “decrease of MCF7 tumorsphere number” value was 50% in assay [9] (10 µM), 80% in [9] (50 µM) and 95% in [9] (100 µM). Further, in [10] (50 µM, in suspension), the “CD24−/CD44+ subpopulation” value was “significantly increased”. Moreover, the “abundance of CD24−/CD44+ subpopulation” value in assay [10] (10 or 50 µM, cells grown as monolayers, vs vehicle) is “not reduced”. Besides, the “amount of CD24−/CD44+ cells” value in assay [10] (cells in suspension, dose-dependent) is listed as “unexpectedly increased”.
